Assay [1] addresses T1, human prostatic steroid 5-α-reductase (Homo sapiens, UniProt P31213).
T1 construct: Prostatic particles were obtained by differential centrifugation; from tissue; host or cells: hyperplastic human prostate, particulate fraction (140,000 x g pellet)
T1 sequence (P31213 1-254): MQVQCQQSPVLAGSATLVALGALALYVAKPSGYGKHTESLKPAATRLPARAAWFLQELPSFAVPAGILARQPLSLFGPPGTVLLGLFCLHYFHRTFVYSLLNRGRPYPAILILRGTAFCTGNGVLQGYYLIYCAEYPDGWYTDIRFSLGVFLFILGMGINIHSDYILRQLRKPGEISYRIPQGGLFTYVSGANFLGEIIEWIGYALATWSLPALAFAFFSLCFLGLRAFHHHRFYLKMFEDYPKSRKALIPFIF
The experiment in a line: Inhibition of human prostatic steroid 5-α-reductase (conversion of [14C]-testosterone, prostatic particulates). Particulars: for Ki: pH 5.0, 37° C., competitive versus testosterone assumed, Dixon analysis, read-out: Inhibition Constants of Human Prostatic Steroid 5-α-Reductase, Ki. Type of assay: biochemical. The procedure: Such diseases and conditions include acne vulgaris, seborrhea, female hirsutism, prostate diseases such as benign prostatic hypertrophy and prostatic adenocarcinoma and male pattern baldness. The potency of several compounds of the invention was tested for potency in inhibiting human steroid 5-α-reductase using tissue from hyperplastic human prostates. In determining potency in inhibiting the human enzyme, the following procedure was employed:
Frozen human prostates were thawed and minced into small pieces (5 mm^3). The tissue was homogenized in 3 to 5 volumes of 20 mM potassium phosphate, pH 6.5, buffer containing 0.33 M sucrose, 1 mM dithiothreitol, and 50 μM NADPH with a Brinkmann Polytron (Sybron Corporation, Westbury, N.Y.). The solution was subjected to sonication for 3 to 5 minutes with a Sonifier Branson Sonic Power Co.) followed by hand homogenization in a glass-to-glass Dounce homogenizer (Kontes Glass Company, Vineland, N.J.).
Prostatic particles were obtained by differential centrifugation at 600 or 1,000 x g for 20 minutes and 140,000 x g for 60 minutes at 4° C. The pellet obtained from the 140,000 x g centrifugation was washed with 5 to 10 tissue volumes of the buffer described above and recentrifuged at 140,000 x g. The resulting pellet was suspended in 20 mM potassium phosphate buffer, pH 6.5, containing 20% glycerol, 1 mM dithiothreitol, and 50 μM NADPH. The suspended particulate solution was stored at -80° C.
A constant amount of [^14 C]-testosterone (52 to 55 mCi/mmol, New England Nuclear, Boston, MA) in ethanol and varying amounts of the potential inhibitor in ethanol were deposited in test tubes and concentrated to dryness in a SAVANT Speed Vac. To each tube was added buffer, 20 μl of 10 mM NADPH and an aliquot of prostatic particulate solution to a final volume of 1.0 ml of 50 mM sodium citrate, pH 5.0. After incubating the solution at 37° C. for 20 to 30 minutes the reaction was quenched by the addition of 4 ml ethyl acetate and 0.25 μmol each of testosterone, dihydrotestosterone, androstanediol, and androstanedione as carriers. The organic layer was removed to a second test tube and evaporated to dryness in a Speed Vac. The residue was dissolved in 20 to 30 μl chloroform, spotted on an individual lane of a 20 x 20 cm prechannelled silica gel TLC plate (Si 250F PA, Baker Chemical) and developed twice with acetone:chloroform (1:9). The radiochemical content in the bands of the substrate and the products was determined with a BIOSCAN Imaging Scanner (Bioscan, Inc., Washington, D.C.). The percent of recovered radiolabel converted to product was calculated, from which enzyme activity was determined. All incubations were conducted such that no more than 12% of the substrate (testosterone) was consumed.
The experimentally obtained data was computer fitted to a linear function by plotting the reciprocal of the enzyme activity (1/velocity) against the variable inhibitor concentration (Dixon, M. (1953), Biochem. J., 55, 170). Assuming that the steroidal inhibitor is a competitive inhibitor against testosterone, a value for the inhibition constant (Ki) can be calculated from equation 1:
Ki =(B/A)/[…]) Equation 1

The target of assay [2] is steroid 5-α-reductase. Particulars: cited from earlier work; for mode of 5-α-reductase inhibition: in words.
The subject of another assay is ventral prostate. The experiment in a line: Effect of repeated dosing on prostatic growth / ventral prostate weight in rats. It is filed as in vivo, rat. The following applies: for ventral prostate weight, percent of control: rats, two weeks. The procedure:
N,N diisopropyl-androst-3,5 diene 17β-carboxamide-3-carboxylic acid also was tested for its effects on prostatic growth.

The test system of assay [3] is steroid 5-α-reductase. The experiment in a line: In vivo inhibition of steroid 5-α-reductase: prostatic DHT (and testosterone) levels in rats. On the set-up: species or system rat. The procedure:
Certain compounds of the invention also were tested for their in vivo potency in inhibiting steroid 5-α-reductase activity. Male Charles River CD rats, 48 days old, weighing approximately 200 gm were administered 10 mg/kg of N,N-diisopropyl androst-3,5-diene-17β-carboxamide-3-carboxylic acid dissolved in propylene glycol and diluted in normal saline. Following compound administration the animals were sacrificed, the ventral prostates were excised, and DHT levels were measured by the following procedure.
Prostate tissue was excised, trimmed, weighed, minced and washed with phosphate buffer. The tissue then was homogenized in phosphate buffer and extracted by addition of ethyl acetate and mixing on an orbital mixer for forty-five minutes. The ethyl acetate was evaporated, the residue was reconstituted in ethanol, and was centrifuge filtered using […] filter paper. The components then were separated using reverse-phase HPLC collecting the DHT fraction. The fraction was reduced to dryness and reconstituted in standard DHT assay buffer available from Amersham. DHT levels then were measured using standard techniques such as radioimmunoassay.
Using procedures similar to those described above the in vivo effects of 17β-N-t-butylcarbox-amide-androst-3,5-diene-3-carboxylic acid also were studied. Rats received a single oral dose of vehicle or 5, 10, 20 or 50 mg/kg of this compound.

Another assay has as its system seminal vesicle. Nature of the assay: Effect of repeated dosing on seminal vesicle weight in rats. Particulars: rats, 1, 5, 10, 25 or 50 mg/kg twice daily, two weeks. Type of assay: in vivo, rat.
The subject of another assay is steroid-5-α-reductase. The experiment in a line: In vitro steroid 5-α-reductase inhibition. It is filed as biochemical. The following applies: in words.
The mark [4] stands for this setting: Irreversible, read-out: 5-α-reductase inhibition constant (Table 1).

The values that follow come from patent US5017568A, “Steriod 5-alpha-reductase inhibitors” (SmithKline Beecham Corporation, priority 1990, dated 1991).

Broadly, the Km is the substrate concentration at which the rate is half of its maximum.

“Also recorded” adds a separate entry of the source. Like-named read-outs stand apart in the source and are kept apart here.

On to `C[C@H](CO)[C@H]1CC[C@H]2[C@@H]3CC[C@H]4C(F)=C(C(=O)O)CC[C@]4(C)[C@H]3CC[C@]12C`, for which the Ki in assay [1] turned out to be 2 µM.
On to `CCOC(=O)C1=CC2=CC[C@H]3[C@@H]4CC[C@H](C(=O)N(C(C)C)C(C)C)[C@@]4(C)CC[C@@H]3[C@@]2(C)CC1`, for which the Ki in assay [1] was found to be 4 µM.
`CC(C)N(C(=O)[C@H]1CC[C@H]2[C@@H]3CC[C@H]4C(F)=C(C(=O)O)CC[C@]4(C)[C@H]3CC[C@]12C)C(C)C`: in assay [1], the Ki is 0.026 µM.
Regarding `CC(C)N(C(=O)[C@H]1CC[C@H]2[C@@H]3CC=C4C=C(C(=O)O)C=C[C@]4(C)[C@H]3CC[C@]12C)C(C)C`, in assay [1], the Ki turned out to be 0.05 µM.
On to `CC(C)N(C(=O)[C@H]1CC[C@H]2[C@@H]3CC(C(F)(F)F)=C4C=C(C(=O)O)CC[C@]4(C)[C@H]3CC[C@]12C)C(C)C`, for which the Ki in assay [1] was determined as 0.9 µM.
`CC(C)(C)NC(=O)[C@H]1CC[C@H]2[C@@H]3CC[C@H]4C=C(C(=O)O)CC[C@]4(C)[C@H]3CC[C@]12C`: the Ki in assay [1] was 0.11 µM.
As to `C[C@]12CC[C@H]3[C@@H](CCC4=CC(=O)CC[C@@]43C)[C@@H]1CC[C@@H]2C(=O)O` [(1)], the Ki on steroid 5-α-reductase [2] (Hsia and Voight 1973, read-out: K1) was 1.1 µM.
On to `CC(=O)[C@H]1CC[C@H]2[C@@H]3CC=C=CC(=O)CCC(=O)[C@H]3CC[C@]12C` [(2)], for which, on steroid 5-α-reductase [2] (setting [4]), the Ki was 1 µM. Besides, in the assay on steroid 5-α-reductase [2], the “mode of 5-α-reductase inhibition” value is “Irreversible; also recorded: affinity label for 5 -α-reductase”.
With `CC(CO)[C@H]1CC[C@H]2[C@@H]3CC[C@H]4C(=[N+]=[N-])C(=O)CC[C@]4(C)[C@H]3CC[C@]12C` (some centres unmarked) [(3)], the Ki at steroid 5-α-reductase [2] (Irreversible, Blohm, et al., 1980, read-out: 5-α-reductase inhibition constant (Table 1)) is 0.035 µM. For the same compound, the “mode of 5-α-reductase inhibition” value with steroid 5-α-reductase [2] is on record as “Irreversible; also recorded: potent, time-dependent inhibitor”.
Turning to `CCN(CC)C(=O)[C@H]1CC[C@H]2[C@@H]3CC[C@H]4N(C)C(=O)CC[C@]4(C)[C@H]3CC[C@]12C` [(4)], the Ki on steroid 5-α-reductase [2] (Liang, et al., 1983, read-out: 5-α-reductase inhibition constant (Table 1)) is 0.005 µM.
As to `C=C1C[C@@H]2[C@H](CC[C@@]3(C)[C@H]2CC[C@]3(OC(C)=O)C(C)=O)[C@@]2(C)CCC(=O)C=C12` [(5)], the Ki at steroid 5-α-reductase [2] (setting [4]) is 1.25 µM. Besides, the “mode of 5-α-reductase inhibition” value with steroid 5-α-reductase [2] is “Irreversible; also recorded: time-dependent inactivator”.
For the compound `CC(C)N(C(=O)[C@H]1CC[C@H]2[C@@H]3CC=C4C=C(C(=O)O)CC[C@]4(C)[C@H]3CC[C@]12C)C(C)C` [N,N-Diisopropyl-androst-3,5-diene-17β-carboxamide-3-carboxylic acid], in the assay with ventral prostate (immature rats, 0.5 to 50 mg/kg twice daily oral, fourteen days), the prostatic growth result is recorded as “dose dependent decrease in prostatic growth”. In addition, the “decrease of prostate weight versus controls” value in the assay with ventral prostate (immature rats, maximum dose group (50 mg/kg), twice daily oral, fourteen days) is given as “forty to fifty”. The “duration of decreased DHT levels” value with steroid 5-α-reductase [3] (male CD rats, 10 mg/kg) is listed as “greater than eight”. Further, the “decrease of prostatic DHT levels relative to vehicle-treated controls” value in the assay on steroid 5-α-reductase [3] (male CD rats, 10 mg/kg, four hours after administration) was “forty”. The “return of prostatic DHT levels to control” value with steroid 5-α-reductase [3] (male CD rats, 10 mg/kg, twenty four hours after treatment) is recorded as “had returned to control levels”.
For the compound `CC(C)(C)NC(=O)[C@H]1CC[C@H]2[C@@H]3CC=C4C=C(C(=O)O)CC[C@]4(C)[C@H]3CC[C@]12C` [N-t-Butyl Androst-3,5-diene-17β-carboxamide-3-Carboxylic Acid], the “ventral prostate weight, percent of control” value with ventral prostate (5 mg/kg twice daily) is on record as “ninety”; with ventral prostate (10 and 50 mg/kg twice daily), “sixty five”. Moreover, the seminal vesicle weights entry with seminal vesicle is “significantly reduced at all treatment levels”. Also, the “prostate dihydrotestosterone levels, percent of controls” value with steroid 5-α-reductase [3] (rats, 10 mg/kg, all time points from two to eighteen hours) was “approximately sixty”; in the assay with steroid 5-α-reductase [3] (rats, single oral dose 5, 10, 20 or 50 mg/kg (all doses)) it was “approximately fifty”. Further, the prostate testosterone levels entry in the assay on steroid 5-α-reductase [3] (rats, 10 mg/kg, over twenty four hours) was “viable without consistent trends”; with steroid 5-α-reductase [3] (rats, single oral dose 5, 10, 20 or 50 mg/kg) it was “remained unaffected”. Besides, the “return of dihydrotestosterone levels to control values” in the assay on steroid 5-α-reductase [3] (rats, 10 mg/kg, twenty-four hours post treatment) is listed as “returned to control values”.
Turning to `CC(C)(C)NC(=O)[C@H]1CC[C@H]2[C@@H]3CC=C4C=C(C(=O)O)CC[C@]4(C)[C@H]3CC[C@]12C` [drawing 35], the Ki in assay [1] came to 0.03 µM.
As to `COC(=O)C1=CC2=CC[C@H]3[C@@H]4CC[C@H](C(=O)N(C(C)C)C(C)C)[C@@]4(C)CC[C@@H]3[C@@]2(C)CC1` [methyl ester of the above compound, 3-Carbomethoxy-androst-3,5-diene-17β-N,N -diisopropylcarboxamide], the “decrease of prostatic DHT levels relative to vehicle-treated controls” value in the assay on steroid 5-α-reductase [3] (rats, single 10 mg/kg dose, after six hours) is “forty eight”. Also, the “steroid 5-α-reductase inhibition in vivo” value with steroid 5-α-reductase [3] (rats, single 10 mg/kg dose, in words) is reported as “significant enzyme inhibition”. The “steroid-5-α-reductase inhibition in vitro” value in the assay on steroid-5-α-reductase was “does not inhibit steroid-5-α-reductase in vitro”.
Turning to `C[C@]12CC[C@H]3[C@@H](CCC4=CC(=O)CC[C@@]43C)[C@@H]1CC[C@@H]2O` [testosterone, reference compound], the Michaelis-Menten constant (Km) in assay [1] (determined in a separate experiment, read-out: Km of the substrate (testosterone)) amounted to 4.5 µM.
